The nature of series [1]: growth suppression of PTEN-null colon cells, dose response, cell-based, HCT116 PTEN knockout (AID 1047).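 Also: HCT116 colon tumor cells with PTEN knocked out; cells exposed to compound for 60 hours before readout; potency for loss of cell viability measured by luminescence.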 The class given is functional.
A short description of series [2]: growth suppression of beta-catenin-knockout colon cells, dose response, cell-based, HCT116, human colon tumor (AID 1045).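 Also: HCT116 colon tumor cells with beta catenin knocked out; cells exposed to compound for 60 hours.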 The class given is functional.
The nature of series [3]: NIH-3T3 fibroblast cytotoxicity, dose response, cytotoxicity control, cell-based, fluorescence, Alamar Blue, secondary assay (AID 2327).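 Also: NIH-3T3 mouse fibroblasts cultured with fluconazole at 8 µg/mL.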 Type of series: functional. (In general: The colour change of resazurin is a common sign of viable cells or microbes.)
The nature of series [4]: C. albicans growth with fluconazole, confirmation, fluorescence, retest (AID 2467). Type of series: functional, cell-based.
The test system of series [5] is BJ. Kind of series: cytotoxicity toward BJ-TERT fibroblasts, dose response, cell-based, RAS-independent, luminescence (AID 1933). The class given is functional. The conditions noted are these: Homo sapiens.
For series [6], the system named is BJ. The series can be described thus: cells. Type of series: functional, cell-based. The conditions noted are these: Homo sapiens.
For series [7], the system named is BJ. Kind of series: cytotoxicity toward BJ-TERT-LT-ST fibroblasts, dose response, cell-based, RAS-independent, luminescence (AID 1935).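 Also: BJ fibroblasts immortalized with TERT plus LT and ST oncogenes.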 The class given is functional. As to conditions: Homo sapiens.
The nature of series [8]: cytotoxicity toward DRD oncogenic fibroblasts, dose response, cell-based, non-viral oncogenic, luminescence (AID 1934). Type of series: functional. As to conditions: Homo sapiens.
In series [9] the target is T1, Ubiquitin-conjugating enzyme E2 N (Homo sapiens, UniProt P61088).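 Also: Dose-response confirmation in a TR-FRET assay detecting UBC13-driven polyubiquitin chain formation, inhibition measured.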
T1 sequence (P61088 whole entry): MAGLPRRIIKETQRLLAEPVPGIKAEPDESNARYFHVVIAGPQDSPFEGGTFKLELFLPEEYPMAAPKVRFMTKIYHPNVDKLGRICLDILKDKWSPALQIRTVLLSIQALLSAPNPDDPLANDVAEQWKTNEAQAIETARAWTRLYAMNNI
Type of series: functional.

The subject of a further series is INS1. The series can be described thus: beta cell apoptosis inhibitors, cytokine rescue, dose response, luminescence, retest (AID 449756).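 Also: cell death triggered by IL-1 beta plus TNF-alpha plus IFN-gamma mixture; protective hits raise ATP signal compared with cytokine alone wells.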 Type of series: functional, cell-based. As to conditions: Rattus norvegicus.
The target in series [10] is T2, Replicative DNA helicase DnaB (Mycobacterium tuberculosis, UniProt P9WMR3).
T2 sequence (P9WMR3 whole entry): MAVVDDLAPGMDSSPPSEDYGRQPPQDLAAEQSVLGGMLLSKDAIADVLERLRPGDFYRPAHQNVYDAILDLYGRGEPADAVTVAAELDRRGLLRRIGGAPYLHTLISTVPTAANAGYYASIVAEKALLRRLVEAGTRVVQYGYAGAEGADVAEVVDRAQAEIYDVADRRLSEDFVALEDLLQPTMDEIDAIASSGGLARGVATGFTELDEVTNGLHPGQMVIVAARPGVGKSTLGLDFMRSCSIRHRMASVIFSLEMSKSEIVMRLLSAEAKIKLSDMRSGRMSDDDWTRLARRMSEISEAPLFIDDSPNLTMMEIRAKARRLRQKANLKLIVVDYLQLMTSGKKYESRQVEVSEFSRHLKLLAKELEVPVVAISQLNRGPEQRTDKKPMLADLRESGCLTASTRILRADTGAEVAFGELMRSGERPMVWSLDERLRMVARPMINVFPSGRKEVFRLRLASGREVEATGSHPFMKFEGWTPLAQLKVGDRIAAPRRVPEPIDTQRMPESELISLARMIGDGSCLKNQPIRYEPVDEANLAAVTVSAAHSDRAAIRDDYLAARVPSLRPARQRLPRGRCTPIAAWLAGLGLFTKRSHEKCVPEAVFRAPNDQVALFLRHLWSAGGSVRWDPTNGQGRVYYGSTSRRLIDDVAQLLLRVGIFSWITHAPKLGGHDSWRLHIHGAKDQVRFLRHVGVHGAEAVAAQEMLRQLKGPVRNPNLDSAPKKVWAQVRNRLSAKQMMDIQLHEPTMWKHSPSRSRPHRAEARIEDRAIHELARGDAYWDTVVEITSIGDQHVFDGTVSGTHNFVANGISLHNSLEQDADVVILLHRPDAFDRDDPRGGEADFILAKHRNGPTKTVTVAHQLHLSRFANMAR
The series can be described thus: DnaB intein splicing inhibitors, dose response, biochemical, cell-free fluorescence (AID 449749). Type of series: functional.

The target of another series is T3, Protein RecA (Mycobacterium tuberculosis, UniProt P9WHJ3).
T3 sequence (P9WHJ3 whole entry): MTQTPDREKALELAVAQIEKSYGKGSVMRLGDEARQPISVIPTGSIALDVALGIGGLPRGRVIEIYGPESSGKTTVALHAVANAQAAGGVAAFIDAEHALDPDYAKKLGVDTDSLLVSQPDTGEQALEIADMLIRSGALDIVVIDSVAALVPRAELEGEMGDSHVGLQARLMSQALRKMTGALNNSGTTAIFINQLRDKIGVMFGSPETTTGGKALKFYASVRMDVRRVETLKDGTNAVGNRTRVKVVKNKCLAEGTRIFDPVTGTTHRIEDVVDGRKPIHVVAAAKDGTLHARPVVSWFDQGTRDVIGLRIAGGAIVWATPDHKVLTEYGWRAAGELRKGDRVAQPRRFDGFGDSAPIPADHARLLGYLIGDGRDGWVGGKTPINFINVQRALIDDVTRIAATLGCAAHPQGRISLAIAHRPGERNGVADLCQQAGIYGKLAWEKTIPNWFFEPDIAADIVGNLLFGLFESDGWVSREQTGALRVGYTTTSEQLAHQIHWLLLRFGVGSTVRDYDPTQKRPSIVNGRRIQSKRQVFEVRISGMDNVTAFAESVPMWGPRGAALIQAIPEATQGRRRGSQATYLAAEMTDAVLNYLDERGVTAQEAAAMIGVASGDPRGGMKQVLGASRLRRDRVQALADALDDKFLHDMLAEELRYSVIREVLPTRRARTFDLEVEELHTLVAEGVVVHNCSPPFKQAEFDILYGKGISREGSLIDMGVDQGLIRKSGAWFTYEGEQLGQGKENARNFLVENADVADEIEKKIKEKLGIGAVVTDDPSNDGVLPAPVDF
Kind of series: Fluorescence Cell-Free Homogeneous Dose Retest to Identify Inhibitors of RecA-Intein Splicing Activity. [Related pubchem assays (depositor defined):AID2097, AID2223, AID489010, AID492950]. The class given is functional.

A further series concerns the target Cytochrome P450 2D6 (Homo sapiens, UniProt P10635).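 Also: CYP2D6 member of a cytochrome P450 panel assay.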
In a further series the target is Cytochrome P450 2C9 (Homo sapiens, UniProt P11712).
Sequence of Cytochrome P450 2C9 (P11712 whole entry): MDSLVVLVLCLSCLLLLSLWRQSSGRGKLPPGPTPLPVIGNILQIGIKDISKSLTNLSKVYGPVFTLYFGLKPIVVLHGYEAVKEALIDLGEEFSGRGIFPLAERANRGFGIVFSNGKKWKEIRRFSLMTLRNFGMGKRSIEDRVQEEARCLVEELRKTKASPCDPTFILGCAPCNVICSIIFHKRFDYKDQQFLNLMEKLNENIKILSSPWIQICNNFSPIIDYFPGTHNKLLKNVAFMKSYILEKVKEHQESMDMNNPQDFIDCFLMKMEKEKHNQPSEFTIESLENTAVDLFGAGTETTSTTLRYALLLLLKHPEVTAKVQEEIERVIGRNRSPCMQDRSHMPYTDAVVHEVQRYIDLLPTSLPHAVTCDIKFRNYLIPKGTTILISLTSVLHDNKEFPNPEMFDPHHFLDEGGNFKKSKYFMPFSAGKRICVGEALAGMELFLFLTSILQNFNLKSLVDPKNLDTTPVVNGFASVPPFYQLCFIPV
In series [11] the target is T4, Calpain-2 catalytic subunit (Sus scrofa, UniProt P43367).
T4 sequence (P43367 whole entry): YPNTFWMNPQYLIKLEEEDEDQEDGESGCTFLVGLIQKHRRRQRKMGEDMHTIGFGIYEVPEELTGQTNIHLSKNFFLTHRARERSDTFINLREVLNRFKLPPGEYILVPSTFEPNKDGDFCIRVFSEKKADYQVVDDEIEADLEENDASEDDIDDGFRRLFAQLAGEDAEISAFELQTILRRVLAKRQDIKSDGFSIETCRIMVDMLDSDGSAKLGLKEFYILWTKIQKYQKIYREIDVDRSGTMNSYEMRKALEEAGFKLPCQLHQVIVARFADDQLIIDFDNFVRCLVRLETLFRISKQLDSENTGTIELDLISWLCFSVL
The series can be described thus: pig calpain II inhibitor potency, dose response, biochemical, fluorogenic peptide substrate (AID 1420). The class given is functional.

For series [12], the target named is T5, Fatty acid synthase (Homo sapiens, UniProt P49327). The series can be described thus: FAS thioesterase domain inhibitors, dose response, biochemical, endpoint fluorescence intensity, uHTS hits (AID 624327).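 Also: fluorescence from hydrolysis of an O-methyl fluorescein acyl ester substrate by the enzyme.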 Type of series: functional.
T5 sequence (P49327 whole entry, the tested form may be a part): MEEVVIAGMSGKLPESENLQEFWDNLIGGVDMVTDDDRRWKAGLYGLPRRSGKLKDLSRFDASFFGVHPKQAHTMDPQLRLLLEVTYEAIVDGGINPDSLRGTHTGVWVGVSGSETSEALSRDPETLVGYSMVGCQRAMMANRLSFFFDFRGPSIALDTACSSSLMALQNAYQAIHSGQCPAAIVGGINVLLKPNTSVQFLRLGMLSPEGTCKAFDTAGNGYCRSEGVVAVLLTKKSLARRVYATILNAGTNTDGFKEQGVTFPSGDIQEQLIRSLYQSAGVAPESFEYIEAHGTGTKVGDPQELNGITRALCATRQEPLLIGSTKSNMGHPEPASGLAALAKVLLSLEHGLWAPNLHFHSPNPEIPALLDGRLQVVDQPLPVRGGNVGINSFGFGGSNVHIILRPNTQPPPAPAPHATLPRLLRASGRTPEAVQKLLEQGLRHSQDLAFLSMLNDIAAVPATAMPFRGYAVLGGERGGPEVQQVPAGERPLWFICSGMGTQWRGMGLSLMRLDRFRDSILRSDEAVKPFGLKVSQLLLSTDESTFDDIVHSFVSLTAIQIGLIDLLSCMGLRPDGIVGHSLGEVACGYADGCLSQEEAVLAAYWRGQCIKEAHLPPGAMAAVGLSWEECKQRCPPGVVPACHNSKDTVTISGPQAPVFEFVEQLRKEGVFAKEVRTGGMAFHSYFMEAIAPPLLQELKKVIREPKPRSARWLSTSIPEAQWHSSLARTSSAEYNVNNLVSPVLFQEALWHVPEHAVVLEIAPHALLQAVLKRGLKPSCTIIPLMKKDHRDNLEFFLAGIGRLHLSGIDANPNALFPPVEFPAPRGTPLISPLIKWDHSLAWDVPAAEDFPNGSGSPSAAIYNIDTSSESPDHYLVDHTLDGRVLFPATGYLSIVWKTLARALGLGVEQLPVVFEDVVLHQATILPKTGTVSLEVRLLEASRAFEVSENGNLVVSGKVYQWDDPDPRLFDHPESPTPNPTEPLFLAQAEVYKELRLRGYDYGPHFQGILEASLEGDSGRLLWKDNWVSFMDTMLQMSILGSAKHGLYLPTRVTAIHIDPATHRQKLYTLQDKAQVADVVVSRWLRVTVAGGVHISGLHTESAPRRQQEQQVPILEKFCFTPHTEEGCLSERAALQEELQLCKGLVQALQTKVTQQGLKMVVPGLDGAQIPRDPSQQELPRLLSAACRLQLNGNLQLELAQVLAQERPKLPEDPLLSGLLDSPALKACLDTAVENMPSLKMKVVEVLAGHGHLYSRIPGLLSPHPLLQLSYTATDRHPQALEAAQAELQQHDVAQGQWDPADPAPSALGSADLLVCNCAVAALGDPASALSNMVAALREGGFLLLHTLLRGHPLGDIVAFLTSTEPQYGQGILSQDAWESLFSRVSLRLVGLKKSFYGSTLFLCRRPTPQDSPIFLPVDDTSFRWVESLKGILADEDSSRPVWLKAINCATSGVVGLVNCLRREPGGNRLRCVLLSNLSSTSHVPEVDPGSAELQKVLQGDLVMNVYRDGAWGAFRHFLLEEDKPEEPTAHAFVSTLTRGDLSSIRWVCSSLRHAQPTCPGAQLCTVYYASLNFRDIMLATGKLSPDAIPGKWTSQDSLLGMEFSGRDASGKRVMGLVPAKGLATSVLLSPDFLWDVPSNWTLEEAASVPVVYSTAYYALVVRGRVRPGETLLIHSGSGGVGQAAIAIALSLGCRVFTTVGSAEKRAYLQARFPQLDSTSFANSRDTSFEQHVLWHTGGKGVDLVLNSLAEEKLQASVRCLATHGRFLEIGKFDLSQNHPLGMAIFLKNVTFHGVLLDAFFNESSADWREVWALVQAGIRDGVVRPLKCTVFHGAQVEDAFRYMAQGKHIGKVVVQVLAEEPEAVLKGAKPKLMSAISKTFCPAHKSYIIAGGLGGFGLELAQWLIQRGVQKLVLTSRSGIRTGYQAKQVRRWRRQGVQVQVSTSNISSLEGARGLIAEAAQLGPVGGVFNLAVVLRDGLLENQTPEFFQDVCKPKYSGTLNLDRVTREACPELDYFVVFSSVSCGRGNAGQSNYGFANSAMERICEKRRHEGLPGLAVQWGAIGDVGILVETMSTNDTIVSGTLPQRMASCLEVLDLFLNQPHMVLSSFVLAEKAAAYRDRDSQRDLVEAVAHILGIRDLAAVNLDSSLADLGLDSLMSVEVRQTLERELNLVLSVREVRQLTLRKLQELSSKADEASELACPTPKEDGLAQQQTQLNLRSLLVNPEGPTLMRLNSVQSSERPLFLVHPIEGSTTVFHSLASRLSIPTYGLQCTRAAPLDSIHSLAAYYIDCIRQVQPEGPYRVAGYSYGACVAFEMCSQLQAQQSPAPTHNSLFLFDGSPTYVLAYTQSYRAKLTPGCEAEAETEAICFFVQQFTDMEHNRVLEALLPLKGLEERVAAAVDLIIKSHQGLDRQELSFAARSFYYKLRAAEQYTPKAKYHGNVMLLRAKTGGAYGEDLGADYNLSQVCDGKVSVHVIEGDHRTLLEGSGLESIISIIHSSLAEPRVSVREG
The target in series [13] is T5, Fatty acid synthase. The series can be described thus: FAS thioesterase domain inhibitors, dose response, biochemical, kinetic fluorescence intensity (AID 624326).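 Also: rate of fluorescence rise from hydrolysis of a fluorogenic O-methyl fluorescein ester substrate.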 Type of series: functional.
The next series relates to P388/ADR. Kind of series: cells. The class given is functional. As to conditions: Mus musculus.
The subject of a further series is SN12K1. The series can be described thus: cells. As to conditions: Homo sapiens. The class given is functional.
The next series concerns P388. The series can be described thus: cells. The class given is functional. The conditions noted are these: Mus musculus.

Counter-ions that a name gives are not always drawn. Activity calls are given as the source filed them. A value given as a limit tells only on which side of the number the result lay.

Sequence of Cytochrome P450 2D6 (P10635 whole entry): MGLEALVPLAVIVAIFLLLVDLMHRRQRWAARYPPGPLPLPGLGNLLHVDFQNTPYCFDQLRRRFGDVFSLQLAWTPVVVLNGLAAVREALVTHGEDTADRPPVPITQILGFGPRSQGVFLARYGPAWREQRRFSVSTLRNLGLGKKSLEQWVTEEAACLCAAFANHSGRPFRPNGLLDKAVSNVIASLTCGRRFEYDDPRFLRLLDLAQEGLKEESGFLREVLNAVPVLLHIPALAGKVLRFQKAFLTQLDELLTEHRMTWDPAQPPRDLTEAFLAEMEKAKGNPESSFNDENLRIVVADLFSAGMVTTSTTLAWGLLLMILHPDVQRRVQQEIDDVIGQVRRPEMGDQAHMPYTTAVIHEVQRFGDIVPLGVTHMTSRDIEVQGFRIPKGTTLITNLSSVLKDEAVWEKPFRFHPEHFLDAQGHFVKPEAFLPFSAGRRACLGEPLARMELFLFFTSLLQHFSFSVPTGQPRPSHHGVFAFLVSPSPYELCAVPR

Regarding `CC(=O)Oc1ccc2ccccc2c1C(NC(=O)Cc1ccccc1)c1ccccc1Cl` (stereo not drawn), the 50% effective concentration (EC50) in [1] is 22.4 µM (active); in [2], 27.7 µM (active).
For the compound `COc1ccc(/C=C2\N=C(SC)NC2=O)cc1`, the EC50 was > 150 µM (inactive) in series [3] and > 38 µM (not active) in series [4].
On to `CN(C)CCCn1cnc2c(c1=N)C(c1ccccc1)c1ccc3ccccc3c1O2` (stereo not drawn), for which the concentration giving a half-maximal response (EC50) with BJ [5] is 5.45 µM (inconclusive); in the series on BJ [6], 8.21 µM (active); in the series on BJ [7] it was 4.25 µM (active); in series [8] it was 5.25 µM (active). Further, the IC50 in [9] is > 20 µM (inactive). For the same compound, the AC50 in the series on INS1 was 6.49 µM (active).
Consider `CCOC(=O)c1oc2nc(CC(C)C)c3c(c2c1N)CCC3`, for which the concentration at half-maximal activity (AC50) was 91.7 µM (active) in series [10], 25.1 µM (inconclusive) on Cytochrome P450 2D6 and “inconclusive” at Cytochrome P450 2C9. For the same compound, the EC50 at Protein RecA is > 380 µM (inactive).
With `COc1cc2ccccc2cc1C(=O)N(CCN(C)C)c1nc2ccc(Br)cc2s1`, the EC50 in series [3] is 101 µM (active); in series [4] it was > 38 µM (not active).
As to `CCCCn1cc[n+](C2=C([N-]S(=O)(=O)c3ccccc3)C(=O)c3ccccc3C2=O)c1`, the EC50 in series [1] was 5.34 µM (active); in series [2], 5.73 µM (active).
In the case of `O=C(N1CCN(c2ccccn2)CC1)N1c2ccccc2Sc2ccccc21`, the EC50 with BJ [5] is 0.62 µM (active); with BJ [6] it was 53.6 µM (inconclusive); with BJ [7], 0.979 µM (inconclusive); in series [8], 0.523 µM (active). Also, the IC50 in series [11] is given as 4.55 µM (not active).
On to `CC(C)(C)c1ccc(C(=O)NCCC(=O)Nc2cc(Cl)ccc2N2CCOCC2)cc1`, for which the IC50 was 9.59 µM (active) at Fatty acid synthase [12] and 4.54 µM (active) on Fatty acid synthase [13].
Turning to `N#Cc1cc2sc3nnc(-c4ccncc4)n3c2cc1C#N`, the values for the IC50 at Fatty acid synthase [12] and on Fatty acid synthase [13] were 3.82 µM (active) and 4.69 µM (active), respectively.
Take `COC(=O)C1CCN(Cc2c(C(=O)N3C[C@@H](C)O[C@@H](C)C3)nc3ccc(Cl)cn23)CC1`: the EC50 was > 150 µM (inactive) in series [3] and > 38 µM (not active) in series [4].
With `Oc1c(Cl)cc(CN2CCCCC2)c2cccnc12`, the concentration for a half-maximal effect (EC50) with BJ [5] is 1.39 µM (active); in the series on BJ [6] it was 25.9 µM (inconclusive); in the series with BJ [7] it was 76.1 µM (inconclusive); in series [8], 53.1 µM (inconclusive).
`COc1cc(/C=C/c2ccc(OC)c(OC)c2)oc(=O)c1`: the GI50 in the series with P388/ADR was > 183 µM (inactive); with SN12K1, > 183 µM (inactive); with P388, 96.4 µM (inactive).
`O=NN(CCCl)C(=O)N[C@H]1CC[C@@H](O)CC1`: the GI50 was 3.41 µM (inactive) in the series with P388/ADR, 28.2 µM (inactive) with SN12K1 and 3.76 µM (inactive) in the series on P388.
The like results for `CC(C)NC(=O)OCc1c(CO)c2c(n1C)-c1ccccc1CC2` were, in that order, 6.9 µM (inactive), 18.1 µM (inactive) and 7.59 µM (inactive).
Turning to `Cc1ccc(C2COc3cc(O)c(O)cc3C2)cc1` (stereo not drawn), the GI50 was 1.79 µM (inactive) in the series on P388/ADR, 13.2 µM (inactive) in the series on SN12K1 and 1.75 µM (inactive) in the series with P388.
The like results for `CCN1CCCC(NCc2c3ccccc3c(CNC3CCCN(CC)C3)c3ccccc23)C1` (stereo not drawn) were, in that order, 15.7 µM (inactive), 8.32 µM (inactive) and 2.64 µM (inactive).
In the case of `CN1CCN(c2ccc([N+](=O)[O-])cc2/C=N/NC(=O)c2ccc(F)cc2)CC1`, the IC50 at Fatty acid synthase [12] was 11.2 µM (active); on Fatty acid synthase [13], 16 µM (active).
On to `O=c1[nH]cc(/N=C/c2cc([N+](=O)[O-])ccc2O)c(=O)[nH]1`, for which the EC50 in series [3] is > 150 µM (inactive); in series [4], > 38 µM (not active); on Protein RecA, 5.48 µM (active). Also, the AC50 in series [10] was 5.98 µM (active).
On to `CCCCS(=N)(=O)CC[C@H](N)C(=O)O` (stereo partly drawn) [BUTHIONINE SULFOXIME], for which the results for the GI50 in the series with P388/ADR, in the series on SN12K1 and in the series on P388 were > 5000 µM (inactive), 3720 µM (inactive) and 2250 µM (inactive), respectively.
On to `CCCCCCCCCCCCCCCCSCC(COC)COP(=O)([O-])OCC[N+](C)(C)C` (stereo not drawn) [ILMOFOSINE], for which the GI50 in the series with P388/ADR was 4.01 µM (inactive); in the series with SN12K1, 11.7 µM (inactive); with P388 it was 2.36 µM (inactive).
`N[C@@H](Cc1ccc(N(CCCl)CCCl)cc1)C(=O)O` [MELPHALAN HYDROCHLORIDE]: the GI50 is 5.71 µM (inactive) in the series with P388/ADR, 26.5 µM (inactive) with SN12K1 and 2.39 µM (inactive) in the series with P388.

What is called EC50 is the concentration giving half of the maximal effect. What is called IC50 is the concentration that inhibits the measured activity by half. In general, AC50 refers to the concentration giving half of the maximal activity seen. What is called GI50 is the concentration at which growth is held to half of that of the control.

Values taken from ChEMBL document CHEMBL1201862, “PubChem BioAssay data set” (2004).
